Source: the supplement of paper PMC10307832

Experiments:
Experiment in all cases: relative viability (nuclei count vs DMSO), 5 days (fraction); higher = more cells survive
[1] = system: NCI-H1355
Method in brief: (§1)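 Medians of duplicate plates are given as relative viability. That measure is the nuclei count in treated wells divided by the count in vehicle wells. Counts were taken on 4× images of lung cancer cell lines in 1536-well plates, 5 days after pin-tool dosing the day after seeding with one drug alone or a fixed anchor-drug dose plus five library-drug doses (not always all listed) in √10 steps.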

[2] = system: NCI-H650
Method in brief: as §1

[3] = system: PC-3 [JPC-3]
Method in brief: as §1

[4] = system: NCI-H358
Method in brief: as §1

[5] = system: SK-MES-1
Method in brief: as §1

[6] = system: BEN
Method in brief: as §1

[7] = system: LU99A
Method in brief: as §1

[8] = system: NCI-H661
Method in brief: as §1

[9] = system: NCI-H1975
Method in brief: as §1

[10] = system: NCI-H596
Method in brief: as §1

[11] = system: NCI-H1666
Method in brief: as §1

[12] = system: NCI-H1944
Method in brief: as §1

[13] = system: LXF-289
Method in brief: as §1

[14] = system: LCLC-97TM1
Method in brief: as §1

[15] = system: NCI-H2342
Method in brief: as §1

[16] = system: NCI-H1651
Method in brief: as §1

[17] = system: LK-2
Method in brief: as §1

[18] = system: NCI-H2087
Method in brief: as §1

[19] = system: HCC-78
Method in brief: as §1

[20] = system: LC-2-ad
Method in brief: as §1

[21] = system: ChaGo-K-1
Method in brief: as §1

[22] = system: NCI-H838
Method in brief: as §1

Nc1ccn([C@@H]2O[C@H](CO)[C@@H](O)[C@@H]2O)c(=O)n1 [Cytarabine] + O=C(c1cc(Cc2n[nH]c(=O)c3ccccc23)ccc1F)N1CCN(C(=O)C2CC2)CC1 [Olaparib] (partner 8 µM)
relative viability ([1]; first compound 0.005 µM): 0.731
relative viability ([1]; first compound 0.01581 µM): 0.673
relative viability ([1]; first compound 0.05 µM): 0.57
relative viability ([1]; first compound 0.1581 µM): 0.396
relative viability ([1]; first compound 0.5 µM): 0.344
relative viability ([2]; first compound 0.005 µM): 0.363
relative viability ([2]; first compound 0.01581 µM): 0.277
relative viability ([2]; first compound 0.05 µM): 0.169
relative viability ([2]; first compound 0.1581 µM): 0.14
relative viability ([2]; first compound 0.5 µM): 0.156
relative viability ([3]; first compound 0.005 µM): 0.508
relative viability ([3]; first compound 0.01581 µM): 1.09
relative viability ([3]; first compound 0.05 µM): 0.971
relative viability ([3]; first compound 0.1581 µM): 0.682
relative viability ([3]; first compound 0.5 µM): 0.617
relative viability ([4]; first compound 0.005 µM): 0.443
relative viability ([4]; first compound 0.01581 µM): 0.491
relative viability ([4]; first compound 0.05 µM): 0.379
relative viability ([4]; first compound 0.1581 µM): 0.145
relative viability ([4]; first compound 0.5 µM): 0.115
relative viability ([5]; first compound 0.005 µM): 0.619
relative viability ([5]; first compound 0.01581 µM): 0.527
relative viability ([5]; first compound 0.05 µM): 0.313
relative viability ([5]; first compound 0.1581 µM): 0.173
relative viability ([5]; first compound 0.5 µM): 0.183
relative viability ([6]; first compound 0.005 µM): 0.822
relative viability ([6]; first compound 0.01581 µM): 0.703
relative viability ([6]; first compound 0.05 µM): 0.637
relative viability ([6]; first compound 0.1581 µM): 0.447
relative viability ([6]; first compound 0.5 µM): 0.384
relative viability ([7]; first compound 0.005 µM): 0.307
relative viability ([7]; first compound 0.01581 µM): 0.28
relative viability ([7]; first compound 0.05 µM): 0.24
relative viability ([7]; first compound 0.1581 µM): 0.24
relative viability ([7]; first compound 0.5 µM): 0.241
relative viability ([8]; first compound 0.005 µM): 0.677
relative viability ([8]; first compound 0.01581 µM): 0.773
relative viability ([8]; first compound 0.05 µM): 0.646
relative viability ([8]; first compound 0.1581 µM): 0.518
relative viability ([8]; first compound 0.5 µM): 0.398
relative viability ([9]; first compound 0.005 µM): 0.671
relative viability ([9]; first compound 0.01581 µM): 0.871
relative viability ([9]; first compound 0.05 µM): 0.561
relative viability ([9]; first compound 0.1581 µM): 0.429
relative viability ([9]; first compound 0.5 µM): 0.253
relative viability ([10]; first compound 0.005 µM): 0.678
relative viability ([10]; first compound 0.01581 µM): 0.692
relative viability ([10]; first compound 0.05 µM): 0.591
relative viability ([10]; first compound 0.1581 µM): 0.549
relative viability ([10]; first compound 0.5 µM): 0.435
relative viability ([11]; first compound 0.005 µM): 0.675
relative viability ([11]; first compound 0.01581 µM): 0.754
relative viability ([11]; first compound 0.05 µM): 0.694
relative viability ([11]; first compound 0.1581 µM): 0.613
relative viability ([11]; first compound 0.5 µM): 0.684
relative viability ([12]; first compound 0.005 µM): 0.438
relative viability ([12]; first compound 0.01581 µM): 0.33
relative viability ([12]; first compound 0.05 µM): 0.322
relative viability ([12]; first compound 0.1581 µM): 0.204
relative viability ([12]; first compound 0.5 µM): 0.156
relative viability ([13]; first compound 0.005 µM): 0.904
relative viability ([13]; first compound 0.01581 µM): 0.829
relative viability ([13]; first compound 0.05 µM): 0.709
relative viability ([13]; first compound 0.1581 µM): 0.285
relative viability ([13]; first compound 0.5 µM): 0.232
relative viability ([14]; first compound 0.005 µM): 0.34
relative viability ([14]; first compound 0.01581 µM): 0.333
relative viability ([14]; first compound 0.05 µM): 0.183
relative viability ([14]; first compound 0.1581 µM): 0.126
relative viability ([14]; first compound 0.5 µM): 0.106
relative viability ([15]; first compound 0.005 µM): 0.477
relative viability ([15]; first compound 0.01581 µM): 0.477
relative viability ([15]; first compound 0.05 µM): 0.468
relative viability ([15]; first compound 0.1581 µM): 0.389
relative viability ([15]; first compound 0.5 µM): 0.31
relative viability ([16]; first compound 0.005 µM): 0.187
relative viability ([16]; first compound 0.01581 µM): 0.193
relative viability ([16]; first compound 0.05 µM): 0.181
relative viability ([16]; first compound 0.1581 µM): 0.199
relative viability ([16]; first compound 0.5 µM): 0.168
relative viability ([17]; first compound 0.005 µM): 0.659
relative viability ([17]; first compound 0.01581 µM): 0.5
relative viability ([17]; first compound 0.05 µM): 0.316
relative viability ([17]; first compound 0.1581 µM): 0.164
relative viability ([17]; first compound 0.5 µM): 0.148
relative viability ([18]; first compound 0.005 µM): 0.413
relative viability ([18]; first compound 0.01581 µM): 0.618
relative viability ([18]; first compound 0.05 µM): 0.578
relative viability ([18]; first compound 0.1581 µM): 0.348
relative viability ([18]; first compound 0.5 µM): 0.19
relative viability ([19]; first compound 0.005 µM): 0.906
relative viability ([19]; first compound 0.01581 µM): 0.849
relative viability ([19]; first compound 0.05 µM): 0.583
relative viability ([19]; first compound 0.1581 µM): 0.419
relative viability ([19]; first compound 0.5 µM): 0.278
relative viability ([20]; first compound 0.005 µM): 0.697
relative viability ([20]; first compound 0.01581 µM): 0.617
relative viability ([20]; first compound 0.05 µM): 0.65
relative viability ([20]; first compound 0.1581 µM): 0.58
relative viability ([20]; first compound 0.5 µM): 0.474
relative viability ([21]; first compound 0.005 µM): 0.414
relative viability ([21]; first compound 0.01581 µM): 0.417
relative viability ([21]; first compound 0.05 µM): 0.32
relative viability ([21]; first compound 0.1581 µM): 0.238
relative viability ([21]; first compound 0.5 µM): 0.209
relative viability ([22]; first compound 0.005 µM): 0.633
relative viability ([22]; first compound 0.01581 µM): 0.655
relative viability ([22]; first compound 0.05 µM): 0.643
relative viability ([22]; first compound 0.1581 µM): 0.278
relative viability ([22]; first compound 0.5 µM): 0.197
